Reference: patent publication US7754896B2, “Indol-alanine derivatives as selective S1P4-agonists” (Novartis AG, priority 2004, dated 2010)

What was measured:
[1] = system: CHO; assay: Calcium mobilization assay, parental CHO cells; assay type: cell-based; conditions: Cricetulus griseus
Procedure: CHO cells are plated in black Costar plate (96 or 384 well, 50,000 cells or 12,500 cells, respectively) in a MEM with FCS and cultured for 20-24 h at 37° C. in a CO2 incubator. After the removal of the culture medium cells are incubated in HBSS medium containing 2 μM Fluo4AM (Molecular Probes, Cat. No, F-1241; 1 mg/ml stock in DMSO), 5 mM probenicid for 1 h at 37° C., rinsed with HBSS buffer, 2.5 mM probenicid and overlaid with the same medium (75 μl for 96-well plates, 50 μl for 384 plates). The plates are transferred to the FLIPR. After measuring the baseline for 40 sec, the agonist in HBSS is added and the fluorescence is measured at intervals of 2 sec for 3 to 5 min. In some cases the cells are pre-treated for 5 h with 50 ng/ml pertussis toxin (Sigma, Cat Nr P2980). […]
(§1) The compounds mentioned in this application are tested for specificity, e.g. the activity they have in the parental cell line prior transformation with the S1P4 cDNA and for selectivity on CHO cells lines transformed with the S1P1, S1P2, S1P3, and S1P5. […] For example, S1P4 specific and selective compounds may have an EC50 (apparent EC50) measured at S1P4 that is 10×, preferably 100× lower that that measured in wild type CHO cells or In cell expressing any of the other four S1P receptors.

[2] = target: T1, S1P3 (Homo sapiens, UniProt Q99500); assay: Calcium mobilization assay, CHO cells expressing S1P3; assay type: cell-based
T1 construct: expressed in transfected cells
T1 sequence (Q99500 whole entry): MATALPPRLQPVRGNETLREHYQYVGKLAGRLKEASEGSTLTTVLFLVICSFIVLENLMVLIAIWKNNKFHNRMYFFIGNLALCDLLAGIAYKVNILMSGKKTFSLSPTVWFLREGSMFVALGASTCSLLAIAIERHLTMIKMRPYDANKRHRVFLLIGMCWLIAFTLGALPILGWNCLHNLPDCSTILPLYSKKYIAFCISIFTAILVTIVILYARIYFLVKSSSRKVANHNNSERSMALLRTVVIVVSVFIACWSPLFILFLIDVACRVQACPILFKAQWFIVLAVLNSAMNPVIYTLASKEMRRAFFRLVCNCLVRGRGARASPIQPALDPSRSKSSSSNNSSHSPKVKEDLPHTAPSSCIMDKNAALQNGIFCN
From the text: (§2) Human S1P1 (GenBank™ accession number M31210) and S1P3 (GenBank™ accession number X83864) cDNA containing the myc sequence in front to the human S1P1 and S1P3 sequences are inserted in the pcDNA 3.1 vector. The vectors are sequenced to completion to confirm the correctness of the construct. The human S1P2 (GI: 4090955, TREMBL: 0195136) is cloned by a PCR based method. Lung cDNA (marathon cDNA) is obtained (BD Biosciences Chontech, Palo Alto, Calif. 94303, USA). […] The amplified product of around 1100 bp is analyzed by standard agarose gel-electrophoresis. […]
CHO cells are plated in black Costar plate (96 or 384 well, 50,000 cells or 12,500 cells, respectively) in a MEM with FCS and cultured for 20-24 h at 37° C. in a CO2 incubator. […] After measuring the baseline for 40 sec, the agonist in HBSS is added and the fluorescence is measured at intervals of 2 sec for 3 to 5 min. […]
as §1

[3] = target: T1, S1P3; assay: GTPγS binding assay, S1P3; assay type: biochemical; conditions: CHO cells expressing S1P3
From the text: as §2, with “USA). Following oligonucleotides are used for the PCR reaction: forward primer CACCATGGGCAGCTTGTACTCGGAGTACCT GM CCC CAA CM GGT CCA G (1 to 45, GenBank™ accession number AF034780) and reverse primer 5′-GATTCAGACCACCGTGTTGCCCTCCAG (1062 to 1039, GenBank™ accession number AF034780), the initiation of the translation (ATG) and the stop codon are underlined.” for “USA).”
Membrane proteins are prepared from wild type CHO-K1 and the CHO cell clones expressing human S1P4. […] The protein concentration is determined using the Bio Rad Protein Assay and human IgG as standard. […]

SMILES: NC(CNC(=O)c1cc2c(-c3ccccc3Cc3ccccc3)cccc2[nH]1)C(=O)O (stereo not drawn) [Example 2]
- EC50 [1]: > 6 µM
- EC50 [2]: > 6 µM
- EC50 [3]: > 10 µM
